Calls of active or inactive are those of the source. The rule behind the calls is not given here.
Columns and labels:
L02 [1] = assay: Cytotoxicity against human HL7702 cells assessed as inhibition of cell proliferation measured after 48 hrs by MTT assay; type: cell-based; settings: L02, 48 h
A549 = assay: Anticancer activity against human A549 cells assessed as inhibition of cell proliferation measured after 48 hrs by MTT assay; type: functional, cell-based; settings: A549, 48 h
HepG2 [2] = assay: Anticancer activity against human HepG2 cells assessed as inhibition of cell proliferation measured after 48 hrs by MTT assay; type: functional, cell-based; settings: HepG2, 48 h
[3] = Cytotoxicity against human H8 cells assessed as inhibition of cell proliferation measured after 48 hrs by MTT assay; type: cell-based
HeLa = assay: Anticancer activity against human HeLa cells assessed as inhibition of cell proliferation measured after 48 hrs by MTT assay; type: functional, cell-based
HMEC [4] = assay: Cytotoxicity against human HMEC cells assessed as inhibition of cell proliferation measured after 48 hrs by MTT assay; type: cell-based
MRC5 [5] = assay: Cytotoxicity against human MRC5 cells assessed as inhibition of cell proliferation measured after 48 hrs by MTT assay; type: cell-based; settings: MRC5, 48 h
MCF7 = assay: Anticancer activity against human MCF7 cells assessed as inhibition of cell proliferation measured after 48 hrs by MTT assay; type: functional, cell-based; settings: MCF7, 48 h
HepG2 [6] = assay: Cell cycle arrest in human HepG2 cells assessed as accumulation at G2/M phase at 15 uM after 36 hrs by propidium staining based flow cytometry analysis relative to control; type: functional
L02 [7] = assay: Cytotoxicity against human HL7702 cells assessed as inhibition of cell proliferation measured after 48 hrs by MTT assay relative to teniposide; type: cell-based; settings: l02, 48 h
L02 [8] = assay: Induction of apoptosis in human HL7702 cells assessed as apoptotic cells at 50 uM measured after 42 hrs by Annexin-V/propidium iodide staining based flow cytometry analysis relative to control; type: cell-based; settings: l02, 42 h
L02 [9] = assay: Genotoxicity in human HL7702 cells assessed as induction of DNA damage by measuring tail DNA at 50 uM after 24 hrs by alkaline comet assay (reference value: 3 +/- 1.1 %); type: toxicity, cell-based; settings: l02, 24 h
[10] = target: DNA topoisomerase 2-alpha (Homo sapiens) (UniProt P11388); assay: Inhibition of human topoisomerase-2alpha mediated decatenation using kinetoplast DNA as substrate after 30 mins in presence of ATP by ethidium bromide staining-based UV imaging analysis
HepG2 [11] = assay: Induction of apoptosis in human HepG2 cells assessed as apoptotic cells at 5 to 15 uM measured after 36 hrs by Annexin-V/propidium iodide staining based flow cytometry analysis relative to control; type: functional
DNA topoisomerase II [12] = target: T1, DNA topoisomerase II (Homo sapiens, UniProt P11388+Q02880); assay: Poison activity at topoisomerase-2 in human HepG2 cell lysate assessed as topoisomerase-2 band depletion after 3 hrs by Western blot analysis; type: subcellular
DNA topoisomerase II [13] = target: T1, DNA topoisomerase II; assay: Poison activity at topoisomerase-2 in human HL7702 cell lysate assessed as reduction in topoisomerase-2 band depletion at 50 uM after 3 hrs by Western blot analysis; type: ADME, subcellular
HMEC [14] = assay: Cytotoxicity against human HMEC cells assessed as inhibition of cell proliferation measured after 48 hrs by MTT assay relative to teniposide; type: cell-based
[15] = Acute toxicity in ip dosed C57BL6 mouse assessed as mouse survival administered as single dose for 3 days and monitored for 20 days by Bliss method; type: organism-based; settings: in vivo
[16] = Acute toxicity in C57BL6 mouse assessed as effect on body weight at 100 mg/kg, ip administered for 20 days; type: organism-based; settings: in vivo, 480 h
Homo sapiens = species on record: Homo sapiens; assay: Induction of PI3K/AKT phosphorylation in human HL7702 cells at 25 uM after 30 hrs by Western blot analysis; type: cell-based
HepG2 [17] = assay: Induction of DNA damage in human HepG2 cells assessed as increase in H2AX phosphorylation at 20 uM after 24 hrs by Alexa Fluor 488 staining based fluorescence assay; type: functional, cell-based
HepG2 [18] = assay: Induction of apoptosis in human HepG2 cells assessed as apoptotic cells at 10 uM measured after 42 hrs by Annexin-V/propidium iodide staining based flow cytometry analysis relative to control; type: functional
L02 [19] = assay: Genotoxicity in human HL7702 cells assessed as induction of DNA damage at 50 uM after 24 hrs in combination of teniposide by alkaline comet assay; type: toxicity, cell-based; settings: l02, 24 h
HepG2 [20] = assay: Antitumor activity against human HepG2 xenografted in ip dosed BALB/c nude mouse administered for 20 days and measured after 20 days by electronic caliper method; type: functional; settings: 480 h
L02 [21] = assay: Induction of DNA damage in human HL7702 cells assessed as effect on gamma-H2AX phosphorylation at 20 uM after 24 hrs by Alexa Fluor 488 staining based fluorescence assay; type: cell-based; settings: l02, 24 h
HepG2 [22] = assay: Cell cycle arrest in human HepG2 cells assessed as accumulation at G2/M phase at 5 uM after 24 hrs by propidium staining based flow cytometry analysis; type: functional
[23] = target: DNA topoisomerase 2-alpha (Homo sapiens) (UniProt P11388); assay: Inhibition of human topoisomerase-2alpha mediated decatenation at 25 uM using kinetoplast DNA as substrate after 30 mins in presence of ATP by ethidium bromide staining-based UV imaging analysis
L02 [24] = assay: Induction of apoptosis in human HL7702 cells assessed as increase in PARP cleavage at 25 uM after 30 hrs by Western blot analysis; type: cell-based; settings: l02, 30 h
HepG2 [25] = assay: Antitumor activity against human HepG2 xenografted in BALB/c nude mouse assessed as tumor growth inhibition at 30 mg/kg, ip administered for 20 days and measured after 20 days by electronic caliper method relative to control; type: functional; settings: 480 h, read-out: TGI
MRC5 [26] = assay: Cytotoxicity against human MRC5 cells assessed as inhibition of cell proliferation measured after 48 hrs by MTT assay relative to teniposide; type: cell-based; settings: mrc5, 48 h
[27] = Therapeutic index, ratio of LD50 for acute toxicity in ip dosed C57BL6 mouse assessed as mouse survival administered as single dose for 3 days and monitored for 20 days by Bliss method to ED50 for antitumor activity against human HepG2 xenografted in ip dosed BALB/c nude mouse administered for 20 days and measured after 20 days by electronic caliper method; type: organism-based; settings: in vivo, read-out: TI
[28] = target: DNA topoisomerase 2-alpha (Homo sapiens) (UniProt P11388); assay: Inhibition of human topoisomerase-2alpha mediated decatenation at 50 uM using kinetoplast DNA as substrate after 30 mins in presence of ATP by ethidium bromide staining-based UV imaging analysis relative to control
L02 [29] = assay: Induction of apoptosis in human HL7702 cells assessed as increase in BAX level at 25 uM after 30 hrs by Western blot analysis; type: cell-based; settings: l02, 30 h
L02 [30] = assay: Cell cycle arrest in human HL7702 cells assessed as accumulation at G2/M phase at 5 uM after 30 hrs by propidium staining based flow cytometry analysis relative to control; settings: l02, 30 h
HepG2 [31] = assay: Antitumor activity against human HepG2 xenografted in BALB/c nude mouse assessed as tumor volume at 30 mg/kg, ip administered for 20 days and measured after 20 days by electronic caliper method (reference value: 960.20 +/- 32.10 mm3); type: functional

Chain of DNA topoisomerase 2-alpha (Homo sapiens) (P11388 whole entry): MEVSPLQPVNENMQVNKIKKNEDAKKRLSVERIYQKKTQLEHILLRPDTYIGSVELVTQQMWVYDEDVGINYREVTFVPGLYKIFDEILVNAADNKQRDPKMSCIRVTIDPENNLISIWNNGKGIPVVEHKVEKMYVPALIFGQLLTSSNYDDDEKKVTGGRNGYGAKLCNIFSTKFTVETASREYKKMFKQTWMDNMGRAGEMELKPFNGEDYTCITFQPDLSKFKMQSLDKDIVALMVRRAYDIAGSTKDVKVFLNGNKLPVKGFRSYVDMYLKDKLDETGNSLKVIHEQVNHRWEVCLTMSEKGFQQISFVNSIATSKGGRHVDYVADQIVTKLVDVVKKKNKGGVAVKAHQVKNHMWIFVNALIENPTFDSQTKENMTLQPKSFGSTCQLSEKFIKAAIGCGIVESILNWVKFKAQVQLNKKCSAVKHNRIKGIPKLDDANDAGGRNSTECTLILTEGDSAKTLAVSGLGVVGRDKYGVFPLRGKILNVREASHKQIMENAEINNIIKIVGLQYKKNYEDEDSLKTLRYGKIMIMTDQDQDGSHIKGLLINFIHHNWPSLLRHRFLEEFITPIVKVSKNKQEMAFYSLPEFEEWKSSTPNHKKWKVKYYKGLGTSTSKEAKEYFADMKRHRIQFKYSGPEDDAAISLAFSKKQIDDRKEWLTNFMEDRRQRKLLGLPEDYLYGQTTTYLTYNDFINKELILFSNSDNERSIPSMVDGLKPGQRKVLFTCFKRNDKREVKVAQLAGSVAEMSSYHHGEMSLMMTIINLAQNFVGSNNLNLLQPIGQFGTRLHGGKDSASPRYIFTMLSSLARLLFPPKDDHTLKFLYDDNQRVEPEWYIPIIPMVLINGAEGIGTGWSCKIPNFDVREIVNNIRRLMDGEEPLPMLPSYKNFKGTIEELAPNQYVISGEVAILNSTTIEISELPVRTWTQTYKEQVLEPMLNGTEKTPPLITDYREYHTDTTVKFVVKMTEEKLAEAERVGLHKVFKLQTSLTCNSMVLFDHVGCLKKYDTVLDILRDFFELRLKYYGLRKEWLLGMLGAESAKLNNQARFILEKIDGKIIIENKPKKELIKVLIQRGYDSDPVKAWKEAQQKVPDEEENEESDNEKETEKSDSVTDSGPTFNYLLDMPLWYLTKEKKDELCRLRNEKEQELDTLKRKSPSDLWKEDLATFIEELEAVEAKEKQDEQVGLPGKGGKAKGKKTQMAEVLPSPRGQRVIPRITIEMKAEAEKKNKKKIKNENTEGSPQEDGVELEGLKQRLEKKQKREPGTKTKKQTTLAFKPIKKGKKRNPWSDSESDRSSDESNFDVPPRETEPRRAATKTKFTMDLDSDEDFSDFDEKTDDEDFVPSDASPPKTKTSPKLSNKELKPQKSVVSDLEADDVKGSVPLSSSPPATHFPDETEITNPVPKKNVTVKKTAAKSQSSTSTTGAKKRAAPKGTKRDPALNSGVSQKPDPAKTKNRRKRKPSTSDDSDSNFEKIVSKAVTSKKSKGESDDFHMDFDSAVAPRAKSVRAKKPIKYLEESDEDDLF

COc1cc([C@@H]2c3cc4c(cc3[C@@H](O[C@@H]3O[C@@H]5CO[C@@H](c6cccs6)O[C@H]5[C@H](O)[C@H]3NC(=O)CSc3nc5cc(F)ccc5o3)[C@H]3COC(=O)[C@H]23)OCO4)cc(OC)c1O
IC50 (L02 [1]): 144 µM
IC50 (A549): 122 µM
IC50 (HepG2 [2]): 121 µM
IC50 [3]: 147 µM
IC50 (HeLa): 158 µM
IC50 (HMEC [4]): 156 µM
IC50 (MRC5 [5]): 133 µM
IC50 (MCF7): 157 µM

COc1cc([C@@H]2c3cc4c(cc3[C@@H](O[C@@H]3O[C@@H]5CO[C@@H](c6cccs6)O[C@H]5[C@H](O)[C@H]3OC(=O)CSc3nc5cc(F)ccc5o3)[C@H]3COC(=O)[C@H]23)OCO4)cc(OC)c1O
IC50 (L02 [1]): 17.3 µM
IC50 (A549): 2.7 µM
IC50 (HepG2 [2]): 1.7 µM
IC50 [3]: 21.3 µM
IC50 (HeLa): 1 µM
IC50 (HMEC [4]): 14.3 µM
IC50 (MRC5 [5]): 15.8 µM
IC50 (MCF7): 4 µM

COc1cc([C@@H]2c3cc4c(cc3[C@@H](O[C@@H]3O[C@@H]5CO[C@@H](c6cccs6)O[C@H]5[C@H](OC(=O)CSc5nc6cc(F)ccc6o5)[C@H]3NC(=O)CSc3nc5cc(F)ccc5o3)[C@H]3COC(=O)[C@H]23)OCO4)cc(OC)c1O
Activity (HepG2 [6]): 76%
fold change (FC) (L02 [7]): 10
IC50 (L02 [1]): 123 µM
Activity (L02 [8]): 30%
Activity (L02 [9]): 8.4%
inhibition [10]: Dose-dependent effect
Activity (HepG2 [11]): 30 - 55%
IC50 (DNA topoisomerase II [12]): 124.2 µM
Activity (DNA topoisomerase II [13]): Not Active
fold change (FC) (HMEC [14]): 10
IC50 (A549): 14.9 µM
LD50 at 480 h [15]: 168 mg/kg
Activity [16]: Non-Toxic
IC50 (HepG2 [2]): 11.1 µM
Activity (Homo sapiens): Active
IC50 [3]: 123 µM
Activity (HepG2 [17]): Active
Activity (HepG2 [18]): 55%
Activity (L02 [19]): Toxic
ED50 (HepG2 [20]): 34.7 mg/kg
Activity (L02 [21]): Toxic
IC50 (HeLa): 155 µM
Activity (HepG2 [22]): inactive
inhibition [23]: Active
Activity (L02 [24]): Non-Toxic
IC50 (HMEC [4]): 125 µM
inhibition in vivo at 30 mg/kg (HepG2 [25]): 62%
fold change (FC) (MRC5 [26]): 10
selectivity ratio at 20 days [27]: 4.82
inhibition [28]: 100%
IC50 (MRC5 [5]): 124 µM
Activity (L02 [29]): Non-Toxic
Activity (L02 [30]): 40%
IC50 (MCF7): 12.3 µM
Activity (HepG2 [31]): 163.25 mm3

COc1cc([C@@H]2c3cc4c(cc3[C@@H](O[C@@H]3O[C@@H]5CO[C@@H](c6cccs6)O[C@H]5[C@H](OC(=O)CSc5nc6cc(F)ccc6o5)[C@H]3O)[C@H]3COC(=O)[C@H]23)OCO4)cc(OC)c1O
IC50 (L02 [1]): 16.1 µM
IC50 (A549): 4.8 µM
IC50 (HepG2 [2]): 2.1 µM
IC50 [3]: 15.9 µM
IC50 (HeLa): 2 µM
IC50 (HMEC [4]): 14.2 µM
IC50 (MRC5 [5]): 14.9 µM
IC50 (MCF7): 4.6 µM
